The source of these data is the supplement of paper PMC5412046.

Each structure is given as a SMILES string. Counter-ions that a name gives are not always drawn.

The subject of assay [1] is SB.msgc-1. Kind of assay: area under the dose-response curve of % viability (trapezoidal, 11 doses) (% viability x log10 concentration); higher = less cytotoxic. Particulars: SB.msgc-1 (sporadic gastric cancer). In outline: (§1)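 The values represent viability normalised to DMSO, expressed at the highest concentration or as trapezoidal area under the curve. Cells were hereditary or sporadic patient-derived gastric cancer cells, 500 in 5 μL medium per 1536 well. They were dosed with 23 nL of compound in DMSO by pintool over 11 threefold dilutions, with each compound's top concentration recorded. CellTiter-Glo was applied 48 h later for 30 min at room temperature before luminescence was read on a ViewLux.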

Assay [2] has as its system SB.mhdgc-1. The description is as above. Particulars: SB.mhdgc-1 (hereditary c.1380delA CDH1 gastric cancer). In outline: as §1
The subject of assay [3] is SB.msgc-1. Kind of assay: viability at highest tested concentration (MAXR) relative to DMSO; higher = less cytotoxic. Particulars: SB.msgc-1 (sporadic gastric cancer). In outline: as §1
Assay [4] has as its system SB.mhdgc-1. Described as above. Particulars: SB.mhdgc-1 (hereditary c.1380delA CDH1 gastric cancer). The method in brief: as §1

As a reminder, the viability is a read-out of living cells in per cent, often relative to untreated cells.

Regarding `CN(C)CCc1ccc(O)cc1` [Hordenine] (top concentration 46.0829 µM), the “area under the dose-response curve” value was determined as 527 with SB.msgc-1 [1] and 433 in the assay with SB.mhdgc-1 [2]. The figures for the viability in the assay with SB.msgc-1 [3] and in the assay with SB.mhdgc-1 [4] were 88.4% and 87.9%, respectively.
On the same counts, the results for `CC(C)n1nc(-c2ccc3oc(N)nc3c2)c2c(N)ncnc21` [INK-128] (top concentration 46.0829 µM) are 354, 265, 41.7% and 23.9%.
On the same counts, the results for `Cc1cccc(C#Cc2ccccc2)n1` [MPEP] (top concentration 46.0829 µM) are 607, 557, 96.5% and 74.4%.
Consider `C[C@H](O)[C@H]1[C@@H]2[C@H](C)C(=C(\N2C1=O)C(O)=O)/S[C@@H]3CN[C@H](CN[S+](N)([O-])=O)C3` [Doripenem] (top concentration 46.0829 µM), for which the “area under the dose-response curve” value stood at 566 in the assay with SB.msgc-1 [1] and 496 in the assay on SB.mhdgc-1 [2]. Also, the viability in the assay with SB.msgc-1 [3] is 108%; in the assay on SB.mhdgc-1 [4] it was 89%.
The like results for `COc1c(C)cnc(Cn2cnc3c(Cl)nc(N)nc32)c1C` [CNF-2024] (top concentration 46.0829 µM) were, in that order, 353, 375, 39.2% and 61.7%.
`Nc1ncnc2ccccc12` [4-Quinazolinamine] (top concentration 46.0829 µM): the results for the “area under the dose-response curve” value with SB.msgc-1 [1] and with SB.mhdgc-1 [2] were 509 and 545, respectively. The viability was 99.5% in the assay on SB.msgc-1 [3] and 66.4% in the assay with SB.mhdgc-1 [4].
For `CC(C)=CC[C@@H](O)C/1=C/C(=O)C2=C(O)C=CC(=C2C1=O)O` [Shikonin] (top concentration 46.0829 µM), the “area under the dose-response curve” value with SB.msgc-1 [1] amounted to 417; with SB.mhdgc-1 [2], 321. The viability stood at 1.71% in the assay on SB.msgc-1 [3] and 2.54% with SB.mhdgc-1 [4].
The like results for `C#Cc1cccc(Nc2ncnc3cc(OCCOC)c(OCCOC)cc23)c1` [Erlotinib hydrochloride] (top concentration 46.0829 µM) were, in that order, 388, 379, 22.1% and 33.1%.
For the compound `CCCCC[C@H](O)/C=C/[C@H]1[C@H](O)CC(=O)[C@@H]1CCCCCCC(=O)O` [Alprostadil] (top concentration 46.0829 µM), the entries for the “area under the dose-response curve” value with SB.msgc-1 [1] and in the assay on SB.mhdgc-1 [2] were 557 and 523, respectively. The viability with SB.msgc-1 [3] turned out to be 58.2%; in the assay on SB.mhdgc-1 [4], 54.8%.
The like results for `OC[C@@H](O)[C@@H](O)[C@H](O)[C@@H](O)CO` [Mannitol] (top concentration 46.0829 µM) were, in that order, 526, 598, 110% and 112%.
On the same counts, the results for `N=C(N)Nc1ccc(C(=O)Oc2ccc3cc(C(=N)N)ccc3c2)cc1` [Nafamostat mesilate] (top concentration 46.0829 µM) are 518, 467, 94.3% and 93.1%.
On the same counts, the results for `COc1cc2ncn(-c3cc(OCc4ccccc4[S+](C)(=O)[O-])c(C#N)s3)c2cc1OC` [IKK-3 Inhibitor IX] (top concentration 46.0829 µM) are 510, 448, 93.1% and 52.9%.
Take `CCNC(=O)Nc1ccc2ncc(Nc3ccc(C)cc3)nc2n1` (top concentration 46.0829 µM): the “area under the dose-response curve” value in the assay on SB.msgc-1 [1] was 347; in the assay on SB.mhdgc-1 [2], 307. Also, the viability with SB.msgc-1 [3] was 27%; with SB.mhdgc-1 [4], 20.8%.
On the same counts, the results for `CN[S+](=O)([O-])Cc1ccc2[nH]cc(CCN(C)C)c2c1` [Sumatriptan succinate] (top concentration 46.0829 µM) are 519, 558, 97.6% and 79.8%.
Take `Cc1ccccc1C(=O)c1ccc(Nc2ccc(Br)cc2N)cc1Cl` [EO-1428] (top concentration 46.0829 µM): the “area under the dose-response curve” value worked out at 528 with SB.msgc-1 [1] and 525 in the assay with SB.mhdgc-1 [2]. In addition, the values for the viability in the assay with SB.msgc-1 [3] and with SB.mhdgc-1 [4] were 70.2% and 53.6%, respectively.
For `COc1cc2nc(N3CCN(C(=O)C4COc5ccccc5O4)CC3)nc(N)c2cc1OC` (stereo not drawn) [Doxazosin mesylate] (top concentration 46.0829 µM), the entries for the “area under the dose-response curve” value with SB.msgc-1 [1] and with SB.mhdgc-1 [2] were 568 and 569, respectively. The viability in the assay with SB.msgc-1 [3] was determined as 104%; in the assay with SB.mhdgc-1 [4], 55.6%.
On the same counts, the results for `CC1(C)O[C@@H]2C[C@H]3[C@@H]4CCC5=CC(=O)C=C[C@]5(C)[C@@]4(F)[C@@H](O)C[C@]3(C)[C@]2(C(=O)CO)O1` [Triamcinolone acetonide] (top concentration 46.0829 µM) are 585, 462, 107% and 96.5%.
The like results for `NC(=O)c1ccc2[nH]ccc2c1` [SD-169] (top concentration 46.0829 µM) were, in that order, 556, 479, 117% and 96.9%.
On the same counts, the results for `C[C@H]1[C@H](NC(=O)/C(=N/OC(C)(C)C(=O)O)c2csc(N)n2)C(=O)N1[S+](=O)([O-])O` [Aztreonam] (top concentration 46.0829 µM) are 502, 549, 101% and 111%.
With `Cl.Cl.Fc1ccc(C(OCCN2CCN(CCCc3ccccc3)CC2)c2ccc(F)cc2)cc1` [Vanoxeamine] (top concentration 46.0829 µM), the “area under the dose-response curve” value is 489 in the assay with SB.msgc-1 [1] and 416 in the assay with SB.mhdgc-1 [2]. Moreover, the figures for the viability in the assay on SB.msgc-1 [3] and in the assay on SB.mhdgc-1 [4] were 39.6% and 2.93%, respectively.
Consider `S=C(NCc1ccc2c(c1)OCO2)N1CCN(c2ncnc3c2oc2ccccc23)CC1` [Amuvatinib] (top concentration 92.1659 µM), for which the “area under the dose-response curve” value worked out at 436 in the assay with SB.msgc-1 [1] and 472 in the assay on SB.mhdgc-1 [2]. For the same compound, the viability worked out at 47.9% in the assay with SB.msgc-1 [3] and 28% in the assay with SB.mhdgc-1 [4].
`OC(=O)C(CC/1=C/C(=O)NC2=CC=CC=C12)NC(=O)C3=CC=C(Cl)C=C3` (stereo not drawn) [Rebamipide] (top concentration 46.0829 µM): the “area under the dose-response curve” value was determined as 446 with SB.msgc-1 [1] and 396 in the assay on SB.mhdgc-1 [2]. In addition, the viability was determined as 3.96% in the assay with SB.msgc-1 [3] and 5.74% with SB.mhdgc-1 [4].
